# Data taken from publication PMC4987650, “Structural Investigation of Park’s Nucleotide on Bacterial Translocase MraY: Discovery of Unexpected MraY Inhibitors” (Scientific Reports, 2016).
# pKd: −log10 of the molar value.
# What was measured:
# MraYBS K226A mutant = target: T1, MraYBS K226A mutant (Bacillus subtilis, UniProt Q03521, K226A); assay: HPLC-based MraY functional assay, mutant MraY; type: biochemical; conditions: consumption of 6 in one-hour reaction
# T1 construct: MBP; made in house
# Procedure: (§1) The purified MraY from Bacillus subtilis was prepared as described in our previous reports. For 5 and 7–10, the reaction mixture containing MraYBS (10 μg/mL), C55P (200 μM) in 40 μL reaction buffer (30 mM Tris, 10 mM MgCl2, 10 mM NaCl, 0.1 mM Tween-20, 2.5% DMSO, pH 8.0) were pre-incubated at 37 °C for 15 min. The reactions were initiated by the addition of Park’s nucleotide analogues (10 μM) and incubated at 37 °C for 1 h. The reaction mixtures were added by uridine (0.01 mg/mL) as the internal standard and heated to 100 °C to stop the transferring reaction. The samples were analyzed by RP-C18 HPLC with gradient elution of 0.25 M NH4HCO3(aq)/15% MeOH in water (100:0 to 0:100) at a flow rate of 1 mL/min over 45 min, and the peaks of substrates were monitored at UV 260 nm. […] The reaction mixtures were heated to 100 °C to stop the transferring reaction, and samples were analyzed by an anion-exchange column (SAX1, Supelco Co., 5 μm, 4.6 × 250 mm) with a linear gradient elution of NH4OAc (20 mM to 1 M in MeOH) at a flow rate of 1.0 mL/min over 30 min. The fluorescent substrates were monitored with λex 466 nm/λem 535 nm by fluorescence detector. […]
# MraYBS T53A mutant = target: T2, MraYBS T53A mutant (Bacillus subtilis, UniProt Q03521, T53A); assay: HPLC-based MraY functional assay, mutant MraY; type: biochemical; conditions: consumption of 6 in one-hour reaction
# T2 construct: MBP; made in house
# Procedure: as §1
# MraYBS T51A mutant = target: T3, MraYBS T51A mutant (Bacillus subtilis, UniProt Q03521, T51A); assay: HPLC-based MraY functional assay, mutant MraY; type: biochemical; conditions: consumption of 6 in one-hour reaction
# T3 construct: MBP; made in house
# Procedure: as §1
# MraYBS [1] = target: T4, MraYBS (Bacillus subtilis, UniProt Q03521); assay: Biolayer interferometry-based (BLI) binding assay
# T4 construct: MBP; made in house
# T4 sequence (Q03521 1-324): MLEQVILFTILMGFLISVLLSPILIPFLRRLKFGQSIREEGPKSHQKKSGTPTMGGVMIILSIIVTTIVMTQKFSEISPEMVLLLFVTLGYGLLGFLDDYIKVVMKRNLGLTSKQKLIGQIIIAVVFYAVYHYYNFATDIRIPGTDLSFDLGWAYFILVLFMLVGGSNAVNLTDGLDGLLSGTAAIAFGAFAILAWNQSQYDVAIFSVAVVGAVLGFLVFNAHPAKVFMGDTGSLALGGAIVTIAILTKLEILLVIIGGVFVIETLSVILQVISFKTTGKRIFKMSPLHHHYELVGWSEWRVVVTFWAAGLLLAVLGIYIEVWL
# Procedure: MraYBS binding was measured in a biolayer interferometry-based binding assay on Octet Red96® instrument (ForteBio, Inc.). The biotinylation of MraYBS was performed with using EZ-Link® Sulfo-NHS-LC-LC-Biotin Kit (Thermo Fisher Scientific, Inc.). In general, MraYBS (1.7 mg/mL) in 50 μL reaction buffer (0.01 M HEPES pH 7.4, 0.15 M NaCl, 0.005% v/v Surfactant P20), was added by the sulfo-NHS-LC-LC-biotin reagent (1 mM, 1 μL). After incubating for 30 minutes at room temperature, the biotinylated-MraYBS was purified by a Zeba^TM Spin Desalting Columns, 7K MWCO (Thermo Fisher Scientific, Inc.), and the buffer was changed to the binding buffer (30 mM Tris, 10 mM MgCl2, 10 mM NaCl, 0.1 mM Tween-20, pH 8.0) during the purification. Comparing to the non-biotinylated-MraYBS, the biotinylated-MraYBS remains 62% activity measured by the HPLC-based MraY functional assay in 1 h reaction. The biotinylated MraYBS was then immobilized to Super Streptavidin (SSA) Octet tips (ForteBio, Inc.) for reaching a fixed signal of 3 nm. Before the assay starting, the MraYBS-labeled SSA sensors were pre-soaked in binding buffer for 30 min. The association of Park’s analogues with MraYBS were measured by incubating MraYBS-labeled SSA sensors in binding buffer containing various concentrations of samples in Octet Red system. The dissociation was monitored by moving the ligand biosenors from the analyte solution to binding buffer. The dissociation constants (KD) were obtained by nonlinear regression analysis using the specific binding model with the GraphPad Prism program (GraphPad Software, San Diego, CA).
# MraYBS [2] = target: T4, MraYBS; assay: MraY fluorescence enhancement assay (kinetics, inhibition); type: biochemical; conditions: WT MraYBS, 6 as the substrate
# Procedure: Determine kinetic parameters by MraY fluorescence enhancement assay. The fluorescence enhancement assay was performed in 384-well plate as described by Bugg et al. with slight modifications.5 The reaction mixture containing MraYBS (10 μg/mL), C55P (200 μM) in 30 μL reaction buffer (30 mM Tris, 10 mM MgCl2, 10 mM NaCl, 0.1 mM Tween-20, 2.5% DMSO, pH 8.0) were pre-incubated at 37 °C for 15 min. The reactions were initiated by the addition of various concentrations of NBD-Park’s nucleotide 6 (0 to 160 μM). For inhibition study, a various concentrations of inhibitors were added before the addition of substrate 6. The continuous fluorescence increase over 60 min was monitored with λex 466 nm/λem 535 nm by fluorescence microplate reader (SpectraMax M5, Molecular Devices, LLC) at 37 °C. Linear regressions of increased fluorescent units (FLU) versus time (min) were used to calculate the initial velocities for each reaction. The kinetic parameters values (Ki, KM, and Vmax) were obtained by nonlinear regression analysis using the […] equation with the GraphPad Prism program (GraphPad Software, San
# MraYBS R281A mutant = target: T5, MraYBS R281A mutant (Bacillus subtilis, UniProt Q03521, R281A); assay: HPLC-based MraY functional assay, mutant MraY; type: biochemical; conditions: consumption of 6 in one-hour reaction
# T5 construct: MBP; made in house
# Procedure: as §1
structure (smiles),measurement,setting,value
"CC(=O)N[C@H]1[C@@H](OP(=O)(O)OP(=O)(O)OC[C@H]2O[C@@H](n3ccc(=O)[nH]c3=O)[C@H](O)[C@@H]2O)O[C@H](CO)[C@@H](O)[C@@H]1O[C@H](C)C(=O)N[C@@H](C)C(=O)N[C@H](CCC(=O)N[C@@H](CCCCNC(=O)CCCCCNc1ccc([N+](=O)[O-])c2nonc12)C(=O)N[C@H](C)C(=O)N[C@H](C)C(=O)O)C(=O)O [Compound 6, NBD-Park’s nucleotide]",Relative activity,MraYBS K226A mutant,100%
same,Relative activity,MraYBS T53A mutant,18%
same,Relative activity,MraYBS T51A mutant,60%
same,pKd,MraYBS [1],3.90
same,Vmax,MraYBS [2],18 ± 0.8 FLU/min
same,Relative activity,MraYBS R281A mutant,81%
